How the values were obtained:
[1] = test system: iPS-derived hepatocyte-like cells (HLC); assay: HBV infection of MB-1-treated HLC (HBsAg released into culture medium); assay type: cell-based, human
HBsAg [2] = assay: HBsAg, multiplex assay, HBV-infected PHH; assay type: cell-based; conditions: Hepatitis B virus
Protocol: Fresh primary human hepatocytes (PXB-PHH) harvested from humanized mice (uPA/SCID mice)—herein called PHH—were obtained from PhoenixBio Co., Ltd (Japan). Cells were seeded on a collagen I-coated plate at the following cell density: 35,000 cells/well (384-well), 70,000 cells/well (96-well), or, 400,000 cells/well (24-well) in modified hepatocyte clonal growth medium (dHCGM). dHCGM is a DMEM medium containing 100 U/ml Penicillin, 100 μg/ml Streptomycin, 20 mM Hopes, 44 mM NaHCO3, 15 μg/ml L-proline, 0.25 μg/ml insulin, 50 nM Dexamethazone, 5 ng/ml EGF, 0.1 mM Asc-2P, 2% DMSO and 10% FBS (Ishida et al., 2015). Cells were cultured at 37° C. incubator in a humidified atmosphere with 5% CO2. Culture medium was replaced 24 h post-plating and every 2 days until harvest.
Following 4 day of maturation with 1 μM MB-1, HLC were incubated with HBV (purified from CHB individuals) at multiplicity of infection (MOI) 10-40 without PEG for 24 hr; virus inoculum was removed the following day. […] Compound treatment in HLC and PHH was started at day 3 post infection. Compound (in powder) was dissolved in DMSO; the final concentration of DMSO added to cells is 1%. Fresh compound was replenished every 2 day until cells were harvested at day 10 (PHH), or day 14 (HLC). Compound effect on HBV and cellular toxicity was measured by multiplex assay (HBsAg, HBeAg, albumin), branched DNA (pgRNA), or digital PCR (cccDNA) and depicted as % of inhibition compared to DMSO control. Graphs were prepared using Spotfire software.
A custom, Luminex-based multiplex assay that simultaneously measured HBeAg, albumin, and HBsAg was developed by Radix BioSolutions (Georgetown, Tex.). This is a sandwich immunoassay; each capture antibody was coupled with xMAP™ Luminex magnetic beads. The dynamic ranges of analyte detection are as follows: HBeAg (1-316 ng/ml), albumin (3.1-10,000 ng/ml), and HBsAg (0.1-100 ng/ml) with coefficient variant (CV) […]. Samples were read on FlexMAP 3D (Luminex) and analyzed by Genedata software.

HBsAg [3] = assay: HBsAg, HBV-infected HepaRG; assay type: cell-based; conditions: Hepatitis B virus

## O=C(NCc1cccc(F)c1)c1cccc2[nH]c(-c3c(NC[C@@H](O)c4ccccc4)cc[nH]c3=O)nc12 [MB-1]
[1]; HLC treated with MB-1 1 μM for 4 days, patient-derived HBV MOI 10, day 11 pi
  peak of HBsAg: ~16 ng/mL
[1]; HLC with MB-1, HepG2.2.15-derived HBV, MOI 10, day 1 pi
  HBsAg: 0.05 ± 0.01 ng/mL
[1]; HLC with MB-1, HepG2.2.15-derived HBV, MOI 10, day 3 pi
  HBsAg: 0.06 ± 0.01 ng/mL
[1]; HLC with MB-1, HepG2.2.15-derived HBV, MOI 10, day 8 pi
  HBsAg: 0.08 ± 0.01 ng/mL
[1]; HLC with MB-1, HepG2.2.15-derived HBV, MOI 10, day 11 pi
  HBsAg: 0.10 ± 0.01 ng/mL
[1]; HLC with MB-1, HepG2.2.15-derived HBV, MOI 10, day 14 pi
  HBsAg: 0.09 ± 0.01 ng/mL
[1]; HLC with MB-1, HepG2.2.15-derived HBV, MOI 100, day 1 pi
  HBsAg: 414.13 ± 1.68 ng/mL
[1]; HLC with MB-1, HepG2.2.15-derived HBV, MOI 100, day 3 pi
  HBsAg: 8.12 ± 2.21 ng/mL
[1]; HLC with MB-1, HepG2.2.15-derived HBV, MOI 100, day 8 pi
  HBsAg: 0.36 ± 0.11 ng/mL
[1]; HLC with MB-1, HepG2.2.15-derived HBV, MOI 100, day 11 pi
  HBsAg: 0.73 ± 0.20 ng/mL
[1]; HLC with MB-1, HepG2.2.15-derived HBV, MOI 100, day 14 pi
  HBsAg: 0.43 ± 0.18 ng/mL
[1]; HLC with MB-1, patient-derived HBV, MOI 10, day 1 pi
  HBsAg: 0.34 ± 0.06 ng/mL
[1]; HLC with MB-1, patient-derived HBV, MOI 10, day 3 pi
  HBsAg: 0.93 ± 0.25 ng/mL
[1]; HLC with MB-1, patient-derived HBV, MOI 10, day 8 pi
  HBsAg: 5.87 ± 1.34 ng/mL
[1]; HLC with MB-1, patient-derived HBV, MOI 10, day 11 pi
  HBsAg: 14.31 ± 2.02 ng/mL
[1]; HLC with MB-1, patient-derived HBV, MOI 10, day 14 pi
  HBsAg: 10.39 ± 1.46 ng/mL

## O=C(NC(CO)CO)c1c[nH]c2ncc(C3CC3)nc12 [compound 7]
HBsAg [2]; 240 h, read-out: HBsAg IC50 (μM) Median, PHH, patient-derived HBV GT A, MOI 40, day 10 pi
  IC50: 0.33 µM
HBsAg [2]; 240 h, read-out: HBsAg IC50 (μM) Median, PHH, patient-derived HBV GT B, MOI 40, day 10 pi
  IC50: 0.34 µM
HBsAg [2]; 240 h, read-out: HBsAg IC50 (μM) Median, PHH, patient-derived HBV GT C, MOI 40, day 10 pi
  IC50: 0.3 µM
HBsAg [2]; 240 h, read-out: HBsAg IC50 (μM) Median, PHH, patient-derived HBV GT D, MOI 40, day 10 pi (Table 5)
  IC50: 0.3 µM
HBsAg [2]; read-out: HBsAg IC50 (μM) Median, PHH, HepG2.2.15-derived HBV GT D, MOI 40
  IC50: 9.98 µM
HBsAg [2]; read-out: HBsAg IC50 (μM) Median, PHH, HepG2.2.15-derived HBV GT D, MOI 125
  IC50: 8.98 µM
HBsAg [2]; read-out: HBsAg IC50 (μM) Median, PHH, patient-derived HBV (GT D)
  IC50: 0.45 µM
HBsAg [2]; read-out: HBsAg IC50 (μM) Median, PHH, patient-derived HBV GT D, MOI 40 (Table 6)
  IC50: 0.44 µM
HBsAg [2]; read-out: HBsAg IC50 (μM) Median, PHH, patient-derived HBV GT D, MOI 125
  IC50: 0.8 µM
HBsAg [2]; read-out: HBsAg IC50s, PHH, patient-derived HBV GT A-D, range stated in text for HBsAg & HBeAg
  IC50: 0.24 to 0.45 µM
HBsAg [3]; read-out: HBsAg IC50 (μM) Median, HepaRG, HepG2.2.15-derived HBV GT D, MOI 40
  IC50: 9.01 µM
HBsAg [3]; read-out: HBsAg IC50 (μM) Median, HepaRG, HepG2.2.15-derived HBV GT D, MOI 125
  IC50: 10.3 µM
HBsAg [3]; read-out: HBsAg IC50 (μM) Median, HepaRG, patient-derived HBV GT D, MOI 40
  IC50: 0.67 µM
HBsAg [3]; read-out: HBsAg IC50 (μM) Median, HepaRG, patient-derived HBV GT D, MOI 125
  IC50: 0.88 µM
